Laboratory results reported in paper PMC9563435, “Comparison of Different Clinical Chemotherapeutical Agents’ Toxicity and Cell Response on Mesenchymal Stem Cells and Cancer Cells” (Cells, 2022).

Experiments:
Type in all cases: cell-based, human
[1] = system: 6 MSCs and 3 cancer cell lines; assay: Cytotoxicity / cell viability assay (PrestoBlue), panel of MSCs and cancer cell lines; details: 5 days treatment, IC50 comparison
Protocol: (§1) Cells were seeded in a 96-well tissue culture plate in 100 µL of medium. Ad-MSC-GFP 1, iAd-MSC-GFP 1, Ad-MSC-GFP 2, Ad-MSC-GFP 3, BM-MSC, and HFF were seeded at 5 × 10^3/100 µL/well density and A431-mCh, MES-SA-mCh, and MCF-7-GFP at 4 × 10^3 cells/100 µL/well concentration in DMEM-F12 media. Different initial cell numbers were used due to different proliferation rates of different cell types. Cells were allowed to attach overnight at 37 °C and the day after were treated with the drugs using the indicated concentrations in 100 µL. Cell viability was measured by using PrestoBlue™ Cell Viability Reagent (A13232, Invitrogen, Waltham, MA, USA). To address metabolic differences between cancer cells and MSCs, the assay was optimized for each cell line, cells were incubated with 5 or 12.5% PrestoBlue™ Cell Viability Reagent diluted in PBS at 37 °C/5% CO2 for 1–1.5 h 5 days after the treatment. The fluorescence signal was measured by an EnSpire (Perkin Elmer, Waltham, MA, USA) fluorometer at 555 nm (excitation)/585 nm (emission) wavelength.
After the incubation period, the relative fluorescence data was measured. The data was normalized with the fluorescence of blank samples (cell culture media). A sigmoidal dose–response curve was fitted to the normalized measurement data and the logarithm of the concentration using the least square method. An inhibitory concentration of 50% (IC50 and log10) was interpolated from the fitted graph. […] In these cases, IC50 was calculated from the line connecting the measurement points. For repeated measurements, average and standard deviation was calculated based on the logarithm of the IC50 values.
To compare the mean IC50 values of six mesenchymal stem cell lines (Group-1) and three cancer cell lines (Group-2), first an F-test was performed to check equal variances between the groups, then two-sample unpaired t-tests were performed to calculate significance using Microsoft® Excel® 2016 (16.0.4266.1001).

Ad-MSC-GFP 3 cells [2] = assay: γ-H2AX staining of DNA double-stranded breaks, Ad-MSC-GFP 3
Protocol: (§2) Ad-MSC-GFP 3 cells were seeded into glass-bottomed chamber slides (ibidi, Germany, Grafelfing, Germany) at 1 × 10^4/well and A431-mCh at 1.6 × 10^4/well density. […] Cells in all chambers were fixed with 4% PFA for 15 min and washed twice with PBS. Blocking solution (0.5% BSA-PBS, 0.1% TritonX-100, 5% goat serum, and 1% fish gelatin) was used for 1 h. γ-H2A.X primary antibody (MA1-2022, Invitrogen, United States) was diluted in blocking solution at 1:500 concentration and incubated overnight at 4 °C. Afterwards, the cells were washed with PBS twice and goat anti-mouse A633 secondary antibody (A21052, abcam, Cambridge, UK) was diluted at 1:250 concentration in blocking solution. Nuclei was stained with a Hoechst-33342 (23491-52-3, Dojindo, Kumamoto, Japan) at 1:1000 concentration.
(§3) To quantify DNA damage based on immunofluorescence against γ-H2AX, a semi-automated image analysis pipeline was set up using CellProfiler v4.1.3 [10]. First, images showing DAPI-stained nuclei were pre-processed by intensity normalization and Gaussian filtering (ϭ = 20 px) to suppress noise and remove artifacts caused by debris. Nuclei candidates were identified by threshold-based segmentation; false candidates were removed from the analysis manually. Using the remaining nuclei regions as masks, pixel intensities were measured on the γ-H2AX channel, thus, excluding non-nuclei signals.

A431-mCh cells [3] = assay: Live cell imaging, confluency, A431-mCh; details: 120 h
Protocol: (§4) JuLI™ Stage Cell History Recorder was used to monitor a five-day cytotoxicity assay on Ad-MSC-GFP 3 and A431-mCh cell lines. […] Images were taken every 105 min for 120 h at 10× objective magnification. Live cell microscopy studies were evaluated using the “Growth curve” function of the JuLI STAT image analysis software (v2.0.1.0).

Ad-MSC 3 cells [4] = assay: Senescence β-galactosidase staining, Ad-MSC 3; details: 4 µM; 5 days treatment then 7 days drug-free
Protocol: At day 5, media was removed and replaced with 200 µL of completed DMEM-F12 for 7 days. The Senescence β-Galactosidase Staining Kit (9860S, Cell Signaling Technology, Danvers, MA, USA) was used to detect senescent cells. Cells were fixed with fixing solution, washed with PBS, stained with X-gal solution overnight at 37 °C without CO2, and coated with 70% glycerol.

Ad-MSC-GFP 3 cells [5] = assay: Live cell imaging, confluency, Ad-MSC-GFP 3; details: 120 h live cell imaging
Protocol: as §4

A431 cells = assay: ROS induction (DCFH-DA), A431; details: 1 h, different concentrations incl. higher
Protocol: (§5) Ad-MSC 3 and A431 cells were seeded in a 96-well tissue culture plate and incubated for 24 h as described above. Cells were washed twice with HBSS and incubated in 100 µL of DCFH-DA dye (R252-10, Dojindo) according to the manufacturer’s instructions. Cells were incubated for 30 min at 37 °C and washed twice with HBSS. […] Supernatant was removed, and the cells were washed with HBSS before imaging with the JuLI^TM Stage Cell History Recorder (NanoEnTek).

Ad-MSC 3 cells [6] = assay: Apoptosis assay (Annexin V / TO-PRO-3 flow cytometry), Ad-MSC 3
Protocol: Apoptosis detection was based on the Annexin-V molecule binding to phosphatidylserine membrane molecules. Two cell lines were used to study apoptosis: Ad-MSC 3 cells were plated in a 5 × 10^4 cells/well concentration, while 4 × 10^4/well A431-mCh were seeded into each well in a 12-well tissue culture plate. […] At day 5, cells were trypsinized and centrifuged, while the supernatant was also collected and combined with the detached cells to include all already dead cells. Cells were washed twice with 500 µL of 1% BSA-PBS (bovine serum albumin dissolved in PBS, A8022, Sigma-Aldrich, St. Louis, MO, USA) solution and centrifuged at 400× G for 4 min. Cells were resuspended in 100 µL of 1× Annexin Binding Buffer (422201, Biolegend, San Diego, CA, USA), and 3 µL of Annexin V-Pacific Blue (A35122, Biolegend, San Diego, CA, USA) and 1 µL of TO-PRO-3 (R37170, Invitrogen, Waltham, MA, USA) were added to each sample. After 15 min of incubation, labeled and non-labeled samples were diluted 5-fold with 1× Annexin Binding Buffer and analyzed by Attune™ NxT flow cytometer.

Ad-MSC 3 cells [7] = assay: ROS induction (DCFH-DA), Ad-MSC 3; details: 1 h, different concentrations incl. higher
Protocol: as §5

Ad-MSC-GFP 3 cells [8] = assay: Cytotoxicity / cell viability assay (PrestoBlue) on Ad-MSC-GFP 3; details: Ad-MSC-GFP 3 / Ad-MSC 3, 5 days
Protocol: as §1
After the incubation period, the relative fluorescence data was measured. The data was normalized with the fluorescence of blank samples (cell culture media). […] In these cases, IC50 was calculated from the line connecting the measurement points. For repeated measurements, average and standard deviation was calculated based on the logarithm of the IC50 values.

A431-mCh cells [9] = assay: γ-H2AX staining of DNA double-stranded breaks, A431-mCh
Protocol: as §2, §3

[10] = 120 h, IC50 concentrations of A431 (2 µM cisplatin, 0.1 µM doxorubicin, 30 µM nutlin-3)

N.N.[Cl][Pt][Cl] [cisplatin]
drug sensitivity of MSCs compared with cancer cells (in words) [1]: required significantly higher concentrations to kill MSCs than cancer cells | number of double-stranded breaks (γ-H2AX) (Ad-MSC-GFP 3 cells [2]; 10 µM, 5 days): significantly increased the number of double-stranded breaks | DNA double-stranded breaks (γ-H2AX) (Ad-MSC-GFP 3 cells [2]; [10]): no DNA break was detected | number of viable colonies in live cell imaging (A431-mCh cells [3]; IC50 of A431-mCh and 10-fold higher concentration): significantly reduced the number of viable colonies | growth kinetics in live cell imaging (A431-mCh cells [3]; concentration 10-fold lower than A431-mCh IC50): did not alter growth kinetics | SA-β-Gal staining (senescence) (Ad-MSC 3 cells [4]): slightly increased SA-ß-Gal staining | concentration at which significant drops in confluency were seen, as multiple of Ad-MSC-GFP 3 IC50 (Ad-MSC-GFP 3 cells [5]): 2 fold | ROS induction (A431 cells): did not induce ROS | apoptosis (in words) (Ad-MSC 3 cells [6]; 10 µM (IC50 level of Ad-MSC-GFP 3)): notable amounts of late apoptosic cells | apoptosis compared to untreated controls (in words) (Ad-MSC 3 cells [6]; 120 h): virtually no apoptosis | ROS induction (Ad-MSC 3 cells [7]): did not induce ROS | IC50 (Ad-MSC-GFP 3 cells [8]): 10 µM | effect on A431 cells in γ-H2AX experiment (A431-mCh cells [9]; 10 µM, 5 days): almost completely eradicating A431 cells | DNA damage (γ-H2AX) (A431-mCh cells [9]; [10]): massive DNA damage
